Results taken from patent EP2243494A1, “Pharmaceutical composition, comprising a steroid-dehydrogenase-reductase inhibitor, and a mineralocorticoid receptor antagonist” (OntoChem GmbH, priority 2009, dated 2010).

Assays:
[1] = molecular target: T1, mineralocorticoid receptor (Homo sapiens, UniProt P08235); details: relative to aldosterone; cited from earlier work
T1 sequence (P08235 1-984): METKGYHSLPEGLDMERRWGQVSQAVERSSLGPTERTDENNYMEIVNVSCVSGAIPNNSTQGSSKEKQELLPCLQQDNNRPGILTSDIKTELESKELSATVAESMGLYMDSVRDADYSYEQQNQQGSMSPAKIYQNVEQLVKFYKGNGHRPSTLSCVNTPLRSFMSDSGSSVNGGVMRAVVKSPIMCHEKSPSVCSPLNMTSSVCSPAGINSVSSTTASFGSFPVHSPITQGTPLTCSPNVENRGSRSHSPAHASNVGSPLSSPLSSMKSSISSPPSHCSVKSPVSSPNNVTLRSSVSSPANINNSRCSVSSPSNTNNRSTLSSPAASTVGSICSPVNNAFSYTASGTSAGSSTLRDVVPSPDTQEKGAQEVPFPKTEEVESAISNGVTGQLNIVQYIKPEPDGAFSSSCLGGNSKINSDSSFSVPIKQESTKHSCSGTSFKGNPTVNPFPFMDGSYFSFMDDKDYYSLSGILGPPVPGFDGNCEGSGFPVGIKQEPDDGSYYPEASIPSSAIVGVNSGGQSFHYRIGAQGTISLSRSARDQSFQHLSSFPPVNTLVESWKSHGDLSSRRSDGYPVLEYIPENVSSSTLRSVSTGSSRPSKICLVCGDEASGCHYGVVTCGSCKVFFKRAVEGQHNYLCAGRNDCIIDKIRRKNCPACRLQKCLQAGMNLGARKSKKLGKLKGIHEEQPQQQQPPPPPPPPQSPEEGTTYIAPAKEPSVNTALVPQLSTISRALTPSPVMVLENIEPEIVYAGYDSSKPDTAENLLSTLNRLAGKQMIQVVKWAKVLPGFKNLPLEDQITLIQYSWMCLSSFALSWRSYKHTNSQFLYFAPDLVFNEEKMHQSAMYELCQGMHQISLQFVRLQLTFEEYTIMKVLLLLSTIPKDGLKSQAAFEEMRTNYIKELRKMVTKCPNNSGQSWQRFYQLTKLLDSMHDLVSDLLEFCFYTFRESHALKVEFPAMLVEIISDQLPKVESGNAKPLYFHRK

monocytes = assay: Monocyte/macrophage differentiation and functional changes (RT-PCR or microarray analysis); type: cell-based, Rodent and human; details: for cell proliferation and maturation of monocytes: 10^-7 M cortisol, 10^-9 M aldosteron
Description: Rodent and human monocytes were studied during their differentiation process towards macrophages in the presence or absence of different, physiologically relevant levels of cortisol or corticosterone, as well as aldosterone, respectively.
Glucocorticoid receptor (GR) and mineralocorticoid receptor occupancy was modulated with either eplerenone or ZK91587 or canrenoate (as MR-antagonists) or RU486 (GR-antagonist). […] (dehydrocorticosterone in rodent cells) was added as a substrate for 11-beta-HSD1. Metyrapone was used to block 11-beta-HSD1 reductase activity. Inhibitors were added with 10^-7 M cortisol, 10^-9 M aldosteron concentration, HSD inhibitors were added in 10^-6 M concentration.
Monocytes were first stimulated with either lipopolysaccharide (LPS) or Tumor-necrosis-factor-alpha (TNF-apha), interferone-gamma (IFN-gamma), interleukin-13 (IL-13) or interleukin-4 (IL-4) before differentiation into macrophages in the presence of above different agonist/antagonist combinations. In order to evaluate the linkage between inflammation and metabolic disease, mature macrophages were also stimulated with fatty acids via the Toll-like-receptor 4.

[2] = tested on: Vascular smooth muscle cells; assay: GR or MR blockade and 11-beta-HSD-2 inhibition in vascular cells; type: cell-based; details: physiologically relevant levels of aldosterone
Description: Vascular smooth muscle cells were incubated with varying combinations of a MR or GR-antagonist and physiologically relevant levels of cortisol or aldosterone; importantly, adosterone and cortisol were also used in combination to mimic specific interactions between the ligand-receptor and co-factor recruitment as observed in vitro and in vivo.

[3] = heart failure patients, normal or low aldosterone, added to ACE inhibitor, loop diuretic and digoxin; cited from earlier work

C[C@]12CCC(=O)C=C1CC[C@@H]1[C@@H]2[C@@H](O)C[C@@]2(C)[C@H]1CC[C@]2(O)C(=O)CO [cortisol]
affinity to the mineralocorticoid receptor, higher than aldosterone [1]: 10-30 fold
cell proliferation and maturation of monocytes (monocytes): induced cell proliferation and maturation of monocytes

C[C@]12CCC(=O)C=C1CC[C@@H]1[C@@H]2[C@@H](O)C[C@]2(C=O)[C@@H](C(=O)CO)CC[C@@H]12 [aldosterone]
vascular endothelial growth factor (VEGF) and ICAM-1 induction [2]: induced vascular endothelial growth factor (VEGF) as well as ICAM-1
cell proliferation and maturation of monocytes (monocytes): induced cell proliferation and maturation of monocytes
macrophage phenotype (NfkappaB, RANK-ligand, interleukin-6, ROS, plasminogen activator inhibitor-1) (monocytes; induction with aldosterone): more proinflammatory macrophage phenotype

C[C@]12CCC(=O)C=C1CC[C@@H]1[C@@H]2C(=O)C[C@@]2(C)[C@H]1CC[C@]2(O)C(=O)CO [cortisone]
cell proliferation and maturation of monocytes (monocytes): induced cell proliferation and maturation of monocytes

COC(=O)[C@@H]1CC2=CC(=O)CC[C@]2(C)[C@@]23O[C@@H]2C[C@@]2(C)[C@@H](CC[C@@]24CCC(=O)O4)[C@H]13 [eplerenone]
vascular endothelial growth factor (VEGF) and ICAM-1 induction [2]: reversed this effect
decrease of post-myocardial infarction morbidity and mortality rate [3]: ~15%

CC(C)(C(=O)c1cccnc1)c1cccnc1 [metyrapone]
effect on macrophage differentiation and function (monocytes; HSD inhibitors added in 10^-6 M concentration): the effects of aldosterone at the high affinitity MR were enhanced or were able to override glucocorticoid mediated effects

CC(=O)S[C@@H]1CC2=CC(=O)CC[C@]2(C)[C@H]2CC[C@@]3(C)[C@@H](CC[C@@]34CCC(=O)O4)[C@H]12 [spironolactone]
decrease of post-myocardial infarction morbidity and mortality rate [3]: about 30%
